Measurements: patent publication US12070467B2, “Method of treating ciliated tissue using CSA micelles” (Brigham Young University, priority 2018, dated 2024)

Legend:
[1] = tested on: P. aeruginosa ATCC 47085; assay: Minimum inhibitory concentration (MIC), broth microdilution; type: cell-based, Pseudomonas aeruginosa; details: 37° C., 18-20 h
Protocol: (§1) Staphylococcus aureus (ATCC 25923) and Pseudomonas aeruginosa (ATCC 47085 (PA01)) were grown from fresh colonies in trypticase soy broth (TSB) and incubated overnight at 37° C. Fungal cultures, Candida albicans (ATCC 90028) and Candida auris (CDC 0382, 0384, 0387, and 0389), were grown overnight in sabouraud dextrose broth (SDB) or Roswell Park Memorial Institute medium (RPMI). Cultures of bacteria and fungi were centrifuged, and pellets were washed three times with phosphate buffered saline (PBS) and further resuspended in fresh PBS. Bacterial cultures were diluted in TSB and fungal cultures were diluted in SDB or RPMI to […] or 10^6 CFU/mL (optical density (OD) readings at 600 nm).
(§2) Minimum inhibitory concentrations (MICs) were measured using the broth microdilution protocol described by the Clinical and Laboratory Standards Institute. […] Aliquots (100 μL) of a prepared inoculum (10^6 CFU/mL for bacteria and […] CFU/mL for fungi) were added, and plates were incubated at 37° C. for 18-20 h. Bacterial or fungal growth was visually observed to determine the MICs. Negative and positive controls were included for each set of MIC measurements. For studies with pluronic, the surfactant was added at 4% and 5% to the initial inocula in each experiment. Measurements were performed in triplicate for all susceptibility tests.

[2] = tested on: C. auris CDC 382; assay: as above; type: cell-based, Candida auris; details: 37° C., 18-20 h
Protocol: as §1, §2

[3] = tested on: C. auris CDC 384; assay: as above; type: cell-based, Candida auris; details: 37° C., 18-20 h
Protocol: as §1, §2

[4] = tested on: C. auris CDC 387; assay: as above; type: cell-based, Candida auris; details: 37° C., 18-20 h
Protocol: as §1, §2

[5] = tested on: C. auris CDC 389; assay: as above; type: cell-based, Candida auris; details: 37° C., 18-20 h
Protocol: as §1, §2

[6] = tested on: C. auris CDC 382 biofilm; assay: Minimum biofilm eradication concentration (MBEC); type: cell-based, Candida auris; details: 48 h biofilm, 24 h treatment
Protocol: as §1
(§3) Inocula (10^6 CFU/mL) of bacterial and fungal strains (P. aeruginosa, S. aureus, C. albicans, and C. auris) were incubated at 37° C. for 48 h in 1 mL of TSB or SDB in 96-well plates. Following incubation, the growth medium was gently removed, and wells were washed three times with sterile PBS. […] Wells, including well edges, were scraped thoroughly with a plastic spatula. Well contents were removed in 1 mL of neutralizing broth (Dey-Engley, Sigma-Aldrich) and placed in a sonicating water bath (Fisher Scientific FS60, 42 kHz, 100 W, Pittsburgh, PA, USA) to disrupt biofilms. After 15 min, the resulting samples were serially diluted, and bacterial samples were plated on TSA while fungal samples were plated on SDA. After 24 h or 48 h of incubation at 37° C., colonies were counted and MBECs were determined. The minimum biofilm eradication concentration (MBEC) was defined as the lowest concentration of antibiotic that prevented bacterial regrowth.

[7] = tested on: C. auris CDC 384 biofilm; assay: Minimum biofilm eradication concentration (MBEC); type: cell-based, Candida auris; details: 48 h biofilm, 24 h treatment
Protocol: as §1, §3

[8] = tested on: C. auris CDC 387 biofilm; assay: Minimum biofilm eradication concentration (MBEC); type: cell-based, Candida auris; details: 48 h biofilm, 24 h treatment
Protocol: as §1, §3

[9] = tested on: C. auris CDC 389 biofilm; assay: Minimum biofilm eradication concentration (MBEC); type: cell-based, Candida auris; details: 48 h biofilm, 24 h treatment
Protocol: as §1, §3

[10] = tested on: C. albicans ATCC 90028 biofilm; assay: Minimum biofilm eradication concentration (MBEC); type: cell-based, Candida albicans; details: 48 h biofilm, 24 h treatment
Protocol: as §1
as §3, with “After 15 min, the resulting samples were serially diluted, and bacterial samples were plated on TSA while fungal samples were plated on SDA.” left out, “The minimum biofilm eradication concentration (MBEC) was defined as the lowest concentration of antibiotic that prevented bacterial regrowth.” left out

[11] = tested on: bacterial and fungal biofilms: S. aureus (ATCC 25923), P. aeruginosa (ATCC 47085), C. albicans (ATCC 90028), C. auris (CDC 384); assay: Antibiofilm activity by plating organisms freed from biofilms and counting colonies (FIG. 2); type: cell-based; details: 100 μg/mL, 48 h biofilms
Protocol: Consequently, this concentration was used as a target for antibacterial and antifungal activity, as well as in tolerability studies with trachea and lung explants. A key preliminary question in these studies is whether the pluronic alone has any effect on bacteria and fungi. […] In these assays, biofilms were generated over 48 h, and after treatment, bacterial and fungal counts were determined by plating organisms freed from biofilms and counting colonies. Detection limits for the experiments were two logs. […] Antibiofilm results were determined through the plating of microorganisms freed from biofilms, culturing, and plate counting. In FIG. 2, white bars show remaining S. aureus (ATCC 25923); black bars show remaining P. aeruginosa (ATCC 47085); gray bars show remaining C. albicans (ATCC 90028); hashed bars show remaining C. auris (CDC 384). The Detection limit was 2 logs. * indicates p<0.05 relative to controls and to pluronic alone.

[12] = tested on: C. albicans; assay: Kinetics of fungicidal activity; type: cell-based, Candida albicans; details: CSA-131 100 μg/mL, pluronic 4%, data not shown
Protocol: Cultures were incubated at 37° C. At 5, 15, 30, 60, and 120 min, aliquots were removed from each well and added to neutralizing buffer to ensure that no further antibacterial activity occurred. These samples were then serially diluted and plated on TSA or SDA. Cultures were incubated at 37° C. for 24 h or 48 h, and colonies were counted and recorded.
Detection limit was two logs.

[13] = tested on: C. albicans (ATCC 90028) and C. auris (CDC 384) in trachea and lung explants; assay: Ex vivo antifungal efficacy in porcine trachea and lung explants (FIGS. 7A, 7B); type: cell-based, Candida albicans, Candida auris; details: 24 h
Protocol: Using 5 mm^3 explant cubes of porcine trachea and lung, ex vivo antifungal efficacy experiments were conducted. Cubes were dissected using a sterile razor blade form the ventral surface of the left caudal lobe of three sets of porcine lungs. After trimming excess tissues away from the explants to produce uniform of size (5 mm), explants were incubated at 37° C. in DMEM/RPMI inoculated with 10^6 CFU/explant of C. auris (CDC 0384) or C. albicans (ATCC 90028) in a 48-well plate. […] Treated explants were incubated for 24 h at 37° C. After incubation, tissues were suspended in 250 μL of neutralizing broth and vortex on the highest setting for 4 min. Samples were then serially diluted in PBS, plated on 5% sheep blood TSA plates, and incubated at 37° C. for 48 h.
FIGS. 7A and 7B are bar graphs comparing the antifungal activity of CSA compositions with and without micelles on fungi, and against a control without any CSA. White bars shown remaining C. albicans (ATCC 90028); black bars show remaining C. auris (CDC 384).

Work on CCCCCCCCCCCCNCCC[C@@H](C)[C@H]1CC[C@H]2[C@@H]3[C@H](OCCCN)C[C@@H]4C[C@H](OCCCN)CC[C@]4(C)[C@H]3C[C@H](OCCCN)[C@]12C.Cl.Cl.Cl.Cl [CSA-131] yielded an MIC [1] of 2 µg/mL, an MIC [2] of 0.5 µg/mL and an MIC [3] of 0.5 µg/mL. For the same compound, the MIC [4] was 0.5 µg/mL, the MIC [5] was 0.5 µg/mL and the MBEC [6] was 82 µg/mL. It also gave an MBEC [7] of 48 µg/mL, an MBEC [8] of 64 µg/mL and an MBEC [9] of 48 µg/mL. The MBEC [10] was 48 µg/mL, the “Reduction of bacterial and fungal counts from biofilms” value (“Reduction” for short) ([11]; with pluronic) was greater than 99.99% and the “Reduction” value ([11]; with pluronic, counts lowered to the detection limit (two logs)) was “> four”. For the same compound, the “Reduction” value ([11]; without pluronic) was greater than 99.99%, the “Reduction” value ([11]; without pluronic, counts lowered to the detection limit (two logs)) was “> four” and the “Difference in kinetic activity of the ceragenin alone and with pluronic” value [12] was “no significant differences”. The “Decrease of fungal counts in treated explants vs control explants” value (from here on “Decrease of fungal counts”) ([13]; CSA-131 alone) was “up to 99%”, the “Decrease of fungal counts” value ([13]; CSA-131 alone, p<0.05 vs controls) was “one and a half to two” and the “Decrease of fungal counts” value ([13]; CSA-131 with pluronic 4%) was “up to 99%”. For the same compound, the “Decrease of fungal counts” value ([13]; CSA-131 with pluronic 4%, p<0.05 vs controls) was “one and a half to two”, the “Decrease of fungal counts” value ([13]; CSA-131 with pluronic 5%) was “up to 99%” and the “Decrease of fungal counts” value ([13]; CSA-131 with pluronic 5%, p<0.05 vs controls) was “one and a half to two”.
